# Assay results from ChEMBL document CHEMBL1125524, “Adenosine A1 antagonists. 2. Structure-activity relationships on diuretic activities and protective effects against acute renal failure” (J Med Chem, 1992).
# Experiments:
# [1] = system: Rattus norvegicus; assay: Effect on urinary excretion potassium and sodium after oral administration of 1.6 mg/kg to rats(potassium and sodium excretion in control rat is 0.169+/-0.012); type: functional, Urine
# [2] = system: Rattus norvegicus; assay: Oral diuretic activity was measured after oral administration of 1.6 mg/kg to rats(control volume is 0.97+/-0.05); type: functional, Urine
# [3] = system: Rattus norvegicus; assay: Percent inhibition of serum creatinine by the compound given as ratio of Cr value in treated to vehicle treated ones after intraperitoneal administration of 1 mg/kg of compound to rats(vehicle 4.82+/-0.17); type: functional; details: ip
# [4] = target: Adenosine A2 receptor (Rattus norvegicus, UniProt P29276+P30543)
# [5] = system: Rattus norvegicus; assay: Urea nitrogen concentration measured after intraperitoneal administration of 0.01 mg/kg of compound to rats(vehicle 130.6+/-4.1); type: functional
# [6] = system: Rattus norvegicus; assay: Ratio of urinary excretion value (Na+ concentration) in treated rats to that in control rats, at a peroral dose of 0.4 mg/Kg; type: functional, Urine
# [7] = system: Rattus norvegicus; assay: Ratio of urinary excretion value (urinary volume) in treated rats to that in control rats, at a peroral dose of 1.6 mg/Kg; type: functional, Urine
# [8] = system: Rattus norvegicus; assay: Ratio of urinary excretion value (urinary volume) in treated rats to that in control rats, at a peroral dose of 0.4 mg/Kg; type: functional, Urine
# [9] = system: Rattus norvegicus; assay: Ratio of sodium ion/potassium ion concentration in treated rats to that in control rats, at a peroral dose of 1.6 mg/Kg; type: functional
# [10] = system: Rattus norvegicus; assay: Urea nitrogen concentration measured after intraperitoneal administration of 1 mg/kg of compound to rats(vehicle 151.5+/-7.4); type: functional
# [11] = system: Rattus norvegicus; assay: Percent inhibition of serum creatinine by the compound given as ratio of Cr value in treated to vehicle treated ones after intraperitoneal administration of 0.1 mg/kg of compound to rats(vehicle 3.62+/-0.23); type: functional; details: ip
# [12] = system: Rattus norvegicus; assay: Ratio of sodium ion/potassium ion concentration in treated rats to that in control rats, at a peroral dose of 0.4 mg/Kg; type: functional
# [13] = system: Rattus norvegicus; assay: Percent inhibition of Urea nitrogen by the compound given as ratio of UN value in treated to vehicle treated ones after intraperitoneal administration of 1 mg/kg of compound to rats(vehicle 151.5+/-7.4); type: functional; details: ip
# [14] = system: Rattus norvegicus; assay: Serum creatinine concentration measured after intraperitoneal administration of 1 mg/kg of compound to rats(vehicle 4.82+/-0.17); type: functional
# [15] = system: Rattus norvegicus; assay: Percent inhibition of Urea nitrogen by the compound given as ratio of UN value in treated to vehicle treated ones after intraperitoneal administration of 0.1 mg/kg of compound to rats(vehicle 141.3+/-8.3); type: functional; details: ip
# [16] = system: Rattus norvegicus; assay: Percent inhibition of serum creatinine by the compound given as ratio of Cr value in treated to vehicle treated ones after intraperitoneal administration of 0.01 mg/kg of compound to rats(vehicle 4.50+/-0.24); type: functional; details: ip
# [17] = system: Rattus norvegicus; assay: Percent inhibition of Urea nitrogen by the compound given as ratio of UN value in treated to vehicle treated ones after intraperitoneal administration of 0.01 mg/kg of compound to rats(vehicle 130.6+/-4.1); type: functional; details: ip
# [18] = system: Rattus norvegicus; assay: Serum creatinine concentration measured after intraperitoneal administration of 0.01 mg/kg of compound to rats(vehicle 4.50+/-0.24); type: functional
# [19] = system: Rattus norvegicus; assay: Serum creatinine concentration measured after intraperitoneal administration of 0.1 mg/kg of compound to rats(vehicle 3.62+/-0.23); type: functional
# [20] = system: Rattus norvegicus; assay: Ratio of urinary excretion value (Na+ concentration) in treated rats to that in control rats, at a peroral dose of 1.6 mg/Kg; type: functional, Urine
# [21] = system: Rattus norvegicus; assay: Urea nitrogen concentration measured after intraperitoneal administration of 0.1 mg/kg of compound to rats(vehicle 141.3+/-8.3); type: functional
# [22] = system: Rattus norvegicus; assay: Effect on urinary excretion potassium and sodium after oral administration of 0.4 mg/kg to rats(potassium and sodium excretion in control rat is 0.267+/-0.044); type: functional, Urine
# [23] = system: Rattus norvegicus; assay: Oral diuretic activity was measured after oral administration of 0.4 mg/kg to rats(control volume is 1.72+/-0.31); type: functional, Urine
# [24] = system: Rattus norvegicus; assay: Ratio of urinary excretion value (Na+ concentration) in treated rats to that in control rats, at a peroral dose of 25 mg/Kg; type: functional, Urine
# [25] = system: Rattus norvegicus; assay: Effect on urinary excretion potassium and sodium after oral administration of 25 mg/kg to rats(potassium and sodium excretion in control rat is 0.180+/-0.024); type: functional, Urine
# [26] = system: Rattus norvegicus; assay: Oral diuretic activity was measured after oral administration of 25 mg/kg to rats(control volume is 1.00+/-0.09); type: functional, Urine
# [27] = system: Rattus norvegicus; assay: Oral diuretic activity was measured after oral administration of 1.6 mg/kg to rats(control volume is 0.79+/-0.12); type: functional, Urine
# [28] = system: Rattus norvegicus; assay: Ratio of urinary excretion value (urinary volume) in treated rats to that in control rats, at a peroral dose of 25 mg/Kg; type: functional, Urine
# [29] = system: Rattus norvegicus; assay: Effect on urinary excretion potassium and sodium after oral administration of 1.6 mg/kg to rats(potassium and sodium excretion in control rat is 0.105+/-0.002); type: functional, Urine
# [30] = target: T1, Adenosine receptor A1 (Cavia porcellus, UniProt P47745)
# T1 sequence (P47745 whole entry): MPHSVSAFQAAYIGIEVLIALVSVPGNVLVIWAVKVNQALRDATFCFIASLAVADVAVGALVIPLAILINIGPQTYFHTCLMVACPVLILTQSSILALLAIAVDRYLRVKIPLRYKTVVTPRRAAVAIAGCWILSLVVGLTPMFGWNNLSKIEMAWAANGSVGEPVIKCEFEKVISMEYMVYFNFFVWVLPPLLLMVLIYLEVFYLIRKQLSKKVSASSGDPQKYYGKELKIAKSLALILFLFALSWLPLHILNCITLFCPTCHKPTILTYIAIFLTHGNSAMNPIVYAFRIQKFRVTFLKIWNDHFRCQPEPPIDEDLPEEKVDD
# Description: Binding affinity against adenosine A1 receptor in guinea pig forebrain membranes using N6-[3H]cyclohexyladenosine as radioligand
# [31] = system: Rattus norvegicus; assay: Serum creatinine concentration measured after intraperitoneal administration of 1 mg/kg of compound to rats(vehicle 5.07+/-0.33); type: functional; details: 1 mg/kg
# [32] = system: Rattus norvegicus; assay: Percent inhibition of Urea nitrogen by the compound given as ratio of UN value in treated to vehicle treated ones after intraperitoneal administration of 1 mg/kg of compound to rats(vehicle 195.8+/-14.4); type: functional; details: Rattus norvegicus, ip
# [33] = system: Rattus norvegicus; assay: Ratio of sodium ion/potassium ion concentration in treated rats to that in control rats, at a peroral dose of 25 mg/Kg; type: functional
# [34] = system: Rattus norvegicus; assay: Urea nitrogen concentration measured after intraperitoneal administration of 1 mg/kg of compound to rats(vehicle 195.8+/-14.4); type: functional; details: 1 mg/kg
# [35] = organism: Rattus norvegicus; assay: animal or person; details: ip, read-out: Inhibition, dose 1 mg/kg, route intraperitoneal
smiles,measurement,setting,value
CCn1c(=O)c2nc(C34CC5CC(CC3C5)C4)[nH]c2n(CC)c1=O,Na,[1],0.492 m equiv 6hr-1 100g-1
same,Urine volume,[2],2.9 ml 6hr-1 100g-1
same,inhibition in vivo at 1 mg/kg,[3],57%
same,Ki,[4],1600 nM
same,UN,[5],81.7 mg/dL
same,T/C,[6],1.33
same,T/C,[7],2.99
same,T/C,[8],1.33
same,Na+/K+,[9],1.97
same,UN,[10],65.9 mg/dL
same,inhibition in vivo at 0.1 mg/kg,[11],63%
same,Na+/K+,[12],1.29
same,inhibition in vivo at 1 mg/kg,[13],56%
same,Cr,[14],2.09 mg/dL
same,inhibition in vivo at 0.1 mg/kg,[15],68%
same,inhibition in vivo at 0.01 mg/kg,[16],37%
same,inhibition in vivo at 0.01 mg/kg,[17],37%
same,Cr,[18],2.82 mg/dL
same,Cr,[19],1.44 mg/dL
same,T/C,[20],2.92
same,UN,[21],44.5 mg/dL
same,Na,[22],0.356 m equiv 6hr-1 100g-1
same,Urine volume,[23],2.29 ml 6hr-1 100g-1
CCCn1c(=O)c2nc(C3CC4CCC3C4)[nH]c2n(CCC)c1=O (stereo in doubt; 19),T/C,[24],2.37
same,Ki,[4],440 nM
same,Na,[25],0.427 m equiv 6hr-1 100g-1
same,Urine volume,[26],2.54 ml 6hr-1 100g-1
same,Urine volume,[27],2.48 ml 6hr-1 100g-1
same,T/C,[28],2.54
same,T/C,[7],3.14
same,Na,[29],0.337 m equiv 6hr-1 100g-1
same,Na+/K+,[9],2.04
same,Ki,[30],3.8 nM
same,Cr,[31],2.59 mg/dL
same,inhibition in vivo at 1 mg/kg,[32],48%
same,Na+/K+,[33],1.84
same,T/C,[20],3.22
same,UN,[34],101 mg/dL
same,inhibition in vivo at 1 mg/kg,[35],49%
